From ChEMBL document CHEMBL1201862, “PubChem BioAssay data set” (2004)
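Grown in 96-well plates, cells were treated for 48 hours with each compound at five concentrations. Insufficient inhibition: endpoint recorded as highest concentration tested. GI50: concentration for 50% inhibition of growth.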 The source made the active and inactive calls. Rule as the data show it: active = GI50 up to about 1.1 µM and inactive = higher.

Tests used:
Experiment in all cases: growth of human tumour cells (NCI), 48 h
[1] = test system: MOLT-4
[2] = test system: SK-MEL-5
[3] = test system: HT-29
[4] = test system: SF-539
[5] = test system: SR
[6] = test system: KM12
[7] = test system: NCI/ADR-RES
[8] = test system: MDA-N
[9] = test system: MCF7
[10] = test system: U-251
[11] = test system: DU-145
[12] = test system: NCI-H226
[13] = test system: Hs-578T
[14] = test system: K562
[15] = test system: OVCAR-4
[16] = test system: A549
[17] = test system: HCT-116
[18] = test system: SK-OV-3
[19] = test system: HCT-15

| SMILES | GI50 [1] | GI50 [2] | GI50 [3] | GI50 [4] | GI50 [5] | GI50 [6] | GI50 [7] | GI50 [8] | GI50 [9] | GI50 [10] | GI50 [11] | GI50 [12] | GI50 [13] | GI50 [14] | GI50 [15] | GI50 [16] | GI50 [17] | GI50 [18] | GI50 [19] |
| --- | --- | --- | --- | --- | --- | --- | --- | --- | --- | --- | --- | --- | --- | --- | --- | --- | --- | --- | --- |
| COc1cccc2cc(C(C)=O)c(=O)oc12 | > 100 µM (inactive) | > 100 µM (inactive) | > 100 µM (inactive) | > 100 µM (inactive) | > 100 µM (inactive) | > 100 µM (inactive) | > 100 µM (inactive) | > 100 µM (inactive) | > 100 µM (inactive) | > 100 µM (inactive) | > 100 µM (inactive) | > 100 µM (inactive) | > 100 µM (inactive) | > 100 µM (inactive) | > 100 µM (inactive) | > 100 µM (inactive) | > 100 µM (inactive) | – | – |
| COc1ccc(OC)c(C2Cc3cnc4nc(N)nc(N)c4c3C2)c1 (centres undefined) | 24.5 µM (inactive) | 29.6 µM (inactive) | 20.8 µM (inactive) | 13.7 µM (inactive) | 19.4 µM (inactive) | 24.3 µM (inactive) | > 100 µM (inactive) | 25.8 µM (inactive) | 29.2 µM (inactive) | 20.7 µM (inactive) | 29.2 µM (inactive) | – | 30.6 µM (inactive) | 19.1 µM (inactive) | 20.8 µM (inactive) | 41.5 µM (inactive) | 19.8 µM (inactive) | 31.8 µM (inactive) | 29.2 µM |
| CC1=CC2C3(C)C(C)(C(C)=CP3(=O)c3c(C(C)C)cc(C(C)C)cc3C(C)C)C1P2(=O)c1c(C(C)C)cc(C(C)C)cc1C(C)C (centres undefined) | 1.66 µM (inactive) | 1.48 µM (inactive) | 2.11 µM (inactive) | – | 1.34 µM (inactive) | 1.78 µM (inactive) | 2.07 µM (inactive) | 2.21 µM (inactive) | 2.26 µM (inactive) | 2.45 µM (inactive) | 3.5 µM (inactive) | 2.23 µM (inactive) | 2.28 µM (inactive) | 1.91 µM (inactive) | 3.25 µM (inactive) | 2.42 µM (inactive) | 1.75 µM (inactive) | 2.38 µM (inactive) | 1.95 µM |
| CC1C[C@]2(C)C(NCCN)=Nc3ccccc3[C@@H]2N(C)c2ccccc21 (some centres undefined) | 27.8 µM (inactive) | 13.7 µM (inactive) | 3.36 µM (inactive) | 12.4 µM (inactive) | 2.81 µM (inactive) | 16 µM (inactive) | 26.4 µM (inactive) | 13.9 µM (inactive) | 8.18 µM (inactive) | – | 15.1 µM (inactive) | 14.7 µM (inactive) | 18.3 µM (inactive) | 11.9 µM (inactive) | 16.3 µM (inactive) | 16.4 µM (inactive) | 8.32 µM (inactive) | – | 17.3 µM |
| CCOc1ccc(-n2c(=O)n3c(Nc4ccc(Cl)cc4)nc4c(c(=O)n(C)c(=O)n4C)n3c2=O)cc1 | 23.9 µM (inactive) | 19 µM (inactive) | 27.7 µM (inactive) | 41 µM (inactive) | 21 µM (inactive) | 16 µM (inactive) | > 100 µM (inactive) | 32.7 µM (inactive) | 57.3 µM (inactive) | 32.7 µM (inactive) | 40.9 µM (inactive) | 22.7 µM (inactive) | 33 µM (inactive) | 29.6 µM (inactive) | 53 µM (inactive) | 75.5 µM (inactive) | 19.5 µM (inactive) | – | 20.7 µM |
| CCOc1ccccc1/N=N/C1C(=O)N(C(=O)CC(=O)Nc2ccccc2OC)N=C1C (centres undefined) | > 100 µM (inactive) | > 100 µM (inactive) | > 100 µM (inactive) | 53.2 µM (inactive) | > 10 µM (inactive) | > 100 µM (inactive) | 54.7 µM (inactive) | > 100 µM (inactive) | > 100 µM (inactive) | 27.3 µM (inactive) | 71.3 µM (inactive) | > 100 µM (inactive) | 1.78 µM (inactive) | – | > 100 µM (inactive) | > 100 µM (inactive) | 40.9 µM (inactive) | 27.5 µM (inactive) | 15.7 µM |
| COc1ccc2c(c1)[C@@H]1c3cc(OC)c(OC)cc3CCN1CCC2 | 33.3 µM (inactive) | 36.7 µM (inactive) | 93.1 µM (inactive) | > 100 µM (inactive) | 76 µM (inactive) | > 100 µM (inactive) | > 100 µM (inactive) | > 100 µM (inactive) | 83.4 µM (inactive) | > 100 µM (inactive) | > 100 µM (inactive) | – | > 100 µM (inactive) | 65.3 µM (inactive) | 35.3 µM (inactive) | > 100 µM (inactive) | 76.2 µM (inactive) | – | 79.4 µM |
| O=c1[nH]nc(Nc2ccc(Cl)cc2)c2nnn(C3CCCCC3)c12 | – | > 100 µM (inactive) | 26.1 µM (inactive) | > 100 µM (inactive) | 7.19 µM (inactive) | 65.5 µM (inactive) | 32.1 µM (inactive) | > 100 µM (inactive) | 58.5 µM (inactive) | 25.2 µM (inactive) | > 100 µM (inactive) | 86.7 µM (inactive) | 34.5 µM (inactive) | 26.5 µM (inactive) | 17 µM (inactive) | > 100 µM (inactive) | 42.1 µM (inactive) | – | 72.8 µM |
| Fc1cccc(Cl)c1C1SCc2nc3cc4ccccc4cc3n21 (centres undefined) | > 100 µM (inactive) | – | 89.1 µM (inactive) | 82.8 µM (inactive) | 8.32 µM (inactive) | > 100 µM (inactive) | 64.6 µM (inactive) | > 100 µM (inactive) | > 100 µM (inactive) | > 100 µM (inactive) | > 100 µM (inactive) | 33.8 µM (inactive) | 28.7 µM (inactive) | > 100 µM (inactive) | 28.9 µM (inactive) | > 100 µM (inactive) | 68.5 µM (inactive) | 37 µM (inactive) | > 100 µM |
| CCOC(=O)c1c(SC(=O)c2ccc(C(C)(C)C)cc2)n(-c2ccccc2)c(=S)n(-c2ccccc2)c1=O | 59.4 µM (inactive) | – | > 100 µM (inactive) | > 100 µM (inactive) | > 100 µM (inactive) | > 100 µM (inactive) | > 100 µM (inactive) | > 100 µM (inactive) | > 100 µM (inactive) | > 100 µM (inactive) | > 100 µM (inactive) | > 100 µM (inactive) | > 100 µM (inactive) | > 100 µM (inactive) | > 100 µM (inactive) | > 100 µM (inactive) | > 100 µM (inactive) | > 100 µM (inactive) | > 100 µM |
| COC(=O)C1=COC(C)C2C[n+]3ccc4c([nH]c5ccccc54)c3CC12 (centres undefined) | 38.9 µM (inactive) | > 100 µM (inactive) | > 100 µM (inactive) | > 100 µM (inactive) | – | > 100 µM (inactive) | > 100 µM (inactive) | > 100 µM (inactive) | 42.7 µM (inactive) | > 100 µM (inactive) | > 100 µM (inactive) | 44.9 µM (inactive) | > 100 µM (inactive) | > 100 µM (inactive) | 81.7 µM (inactive) | > 100 µM (inactive) | > 100 µM (inactive) | > 100 µM (inactive) | 75.2 µM |
| COc1ccc(CCN2CCN(CCc3ccc(OC)cc3)CC2)cc1 | > 100 µM (inactive) | > 100 µM (inactive) | > 100 µM (inactive) | > 100 µM (inactive) | – | > 100 µM (inactive) | > 100 µM (inactive) | > 100 µM (inactive) | > 100 µM (inactive) | > 100 µM (inactive) | > 100 µM (inactive) | > 100 µM (inactive) | > 100 µM (inactive) | > 100 µM (inactive) | > 100 µM (inactive) | > 100 µM (inactive) | > 100 µM (inactive) | > 100 µM (inactive) | > 100 µM |
| OCCN1CN(c2nc(N3CN(CCO)C3)nc(N3CN(CCO)C3)n2)C1 | 33.7 µM (inactive) | 19.2 µM (inactive) | 25.5 µM (inactive) | 18.2 µM (inactive) | 11.2 µM (inactive) | 21.4 µM (inactive) | 31.1 µM (inactive) | 18.1 µM (inactive) | 21.3 µM (inactive) | 22.6 µM (inactive) | 23.6 µM (inactive) | 24.8 µM (inactive) | 35.2 µM (inactive) | 25.4 µM (inactive) | 30.6 µM (inactive) | 83.4 µM (inactive) | 18.6 µM (inactive) | – | 22.3 µM |
| COc1cc2c(cc1OC)C(CCN)=NCC2 | 17.1 µM (inactive) | 20 µM (inactive) | 20.2 µM (inactive) | 6.75 µM (inactive) | 4.58 µM (inactive) | 19 µM (inactive) | 27.4 µM (inactive) | 15.8 µM (inactive) | 18.2 µM (inactive) | 16.4 µM (inactive) | 17.9 µM (inactive) | > 46.1 µM (inactive) | 27.7 µM (inactive) | 11.2 µM (inactive) | 21.2 µM (inactive) | 31.6 µM (inactive) | 18.4 µM (inactive) | > 76.7 µM (inactive) | 19.6 µM |
| N#C[BH2-][n+]1ccc(C(=O)NNCc2ccc(F)cc2)cc1 | > 100 µM (inactive) | > 100 µM (inactive) | – | > 100 µM (inactive) | > 100 µM (inactive) | > 100 µM (inactive) | > 100 µM (inactive) | > 100 µM (inactive) | > 100 µM (inactive) | > 100 µM (inactive) | > 100 µM (inactive) | > 100 µM (inactive) | > 100 µM (inactive) | > 100 µM (inactive) | 64.1 µM (inactive) | > 100 µM (inactive) | > 100 µM (inactive) | – | > 100 µM |
| COc1cccc2cc(C(=O)O)c(=O)oc12 | > 100 µM (inactive) | > 100 µM (inactive) | > 100 µM (inactive) | > 100 µM (inactive) | > 100 µM (inactive) | > 100 µM (inactive) | > 100 µM (inactive) | > 100 µM (inactive) | > 100 µM (inactive) | > 100 µM (inactive) | > 100 µM (inactive) | > 100 µM (inactive) | > 100 µM (inactive) | > 100 µM (inactive) | > 100 µM (inactive) | > 100 µM (inactive) | > 100 µM (inactive) | – | > 100 µM |
